Measured values: paper PMC6733504, “Effects of flavoring compounds used in electronic cigarette refill liquids on endothelial and vascular function” (PLoS ONE, 2019)

Legend:
rat aortic rings [1] = assay: Relaxation of U-46619 precontracted aortic rings to acetylcholine; conditions: vehicle, no flavoring, 95% CI, read-out: EC50 of vascular relaxation to acetylcholine
Experimental: Animal experiments were performed in compliance with the Austrian law on experimentation with laboratory animals (last amendment 2013) based on the European Union guidelines for the Care and the Use of Laboratory Animals (European Union Directive 2010/63/EU). Unsexed Sprague-Dawley rats (obtained from Charles River, Sulzfeld, Germany) were housed at the local animal facility in approved cages. They were fed standard chow (Altromin 3023; obtained from Königshofer Futtermittel, Ebergassing, Austria) and received water ad libitum. Animals were euthanized in a box that was gradually filled with CO2 until vital signs had ceased (cessation of respiration and circulation). […]
For isometric tension measurements, vessel rings with intact endothelium were suspended in 5-ml organ baths containing oxygenated Krebs-Henseleit buffer (concentrations in mM: NaCl 118.4, NaHCO3 25, KCl 4.7, KH2PO4 1.2, CaCl2 2.5, MgCl2 1.2, D-Glucose 11; pH 7.4), as previously described in detail. After equilibration for 60 min at the optimal resting tension of 20 mN, maximal contractile activity was determined with a depolarizing solution containing 60 mM K^+. […]
Effects are expressed as percent of relaxation of U-46619-induced contraction. Concentration-response curves of different ring segments from a single animal were averaged and counted as an individual experiment.

[2] = rats, after intravenous cinnamaldehyde; cited from earlier work
[3] = tested on: endothelium-denuded rat aortic rings; assay: cAMP and cGMP levels in endothelium-denuded aortic rings; conditions: 10 µM
From the text: 1 S4 Table. […]
2 endothelium-denuded rat aortic rings.
Flavoring (fmol x mg-1) (fmol x mg-1)
4 En d o th e liu m-denuded rings, treated with test compounds as described in the
5 Materials and methods section of the main text, were freeze-clamped when maximal
6 relaxation had been reached. Rings were homogenized in 5% trichloroacetic acid
7 and analyzed for cAMP and cGMP by radioimmunoassay. Forskolin and DEA/NO
8 were used to induce maximal accumulation of cAMP and cGMP, respectively. Data
9 shown are mean values±SEM of 3 (forskolin and DEA/NO) or 6 (basal,
10 cinnamaldehyde and eugenol) rings; n.d., not determined, *p<0.05 vs. basal (ANOVA
11 and Dunnett's post hoc test).

endothelial cells [4] = assay: LDH release (membrane integrity); conditions: 1 mM, 60 minutes; maximum = 1% Triton
Experimental: To test for membrane integrity, endothelial cells were assayed for release of lactate dehydrogenase (LDH) into the culture medium. Subsequent to incubation with flavoring compounds (1 mM each) for 1 hour, 20-μl aliquots of the culture media were mixed with 200 μl of reagent buffer (1 mM pyruvate and 0.1 mM NAD^+ in PBS). The decrease in light absorbance at 340 nm was monitored using a diode array spectrophotometer (Hewlett Packard 8452A). Maximum LDH release was determined by treating the cells with 1% Triton X-100.

rat aortic rings [5] = assay: Effect of flavorings on vascular tone of U-46619 precontracted aortic rings; conditions: 95% CI; for EC50: Rattus norvegicus
Experimental: Unsexed Sprague-Dawley rats (obtained from Charles River, Sulzfeld, Germany) were housed at the local animal facility in approved cages. […] Animals were euthanized in a box that was gradually filled with CO2 until vital signs had ceased (cessation of respiration and circulation). Subsequently, the thorax of the animals was opened, the thoracic aorta was removed, cleaned from connective tissue and immediately used for assessment of vessel function.
After equilibration for 60 min at the optimal resting tension of 20 mN, maximal contractile activity was determined with a depolarizing solution containing 60 mM K^+. […] When contraction had reached a stable plateau (~after 20 min) cumulative concentration-response curves were established with flavorings. Where indicated, the effects of the flavorings on vascular tone were tested in the presence of the NOS inhibitor N^G-nitro-L-arginine methyl ester (L-NAME, 0.2 mM).
Concentration-response curves of different ring segments from a single animal were averaged and counted as an individual experiment.

[6] = molecular target: T1, soluble guanylate cyclase (sGC) (Bos taurus, UniProt P16068+P19687); assay: Activity of purified sGC stimulated with DEA/NO; format: biochemical, bovine; conditions: for Emax of DEA/NO-stimulated sGC activity in presence of flavoring: flavoring 1 mM, DEA/NO 0.01–10 μM
T1 construct: The activity of sGC purified from bovine lung; from tissue; host or cells: bovine lung
T1 sequence (P19687 1-691): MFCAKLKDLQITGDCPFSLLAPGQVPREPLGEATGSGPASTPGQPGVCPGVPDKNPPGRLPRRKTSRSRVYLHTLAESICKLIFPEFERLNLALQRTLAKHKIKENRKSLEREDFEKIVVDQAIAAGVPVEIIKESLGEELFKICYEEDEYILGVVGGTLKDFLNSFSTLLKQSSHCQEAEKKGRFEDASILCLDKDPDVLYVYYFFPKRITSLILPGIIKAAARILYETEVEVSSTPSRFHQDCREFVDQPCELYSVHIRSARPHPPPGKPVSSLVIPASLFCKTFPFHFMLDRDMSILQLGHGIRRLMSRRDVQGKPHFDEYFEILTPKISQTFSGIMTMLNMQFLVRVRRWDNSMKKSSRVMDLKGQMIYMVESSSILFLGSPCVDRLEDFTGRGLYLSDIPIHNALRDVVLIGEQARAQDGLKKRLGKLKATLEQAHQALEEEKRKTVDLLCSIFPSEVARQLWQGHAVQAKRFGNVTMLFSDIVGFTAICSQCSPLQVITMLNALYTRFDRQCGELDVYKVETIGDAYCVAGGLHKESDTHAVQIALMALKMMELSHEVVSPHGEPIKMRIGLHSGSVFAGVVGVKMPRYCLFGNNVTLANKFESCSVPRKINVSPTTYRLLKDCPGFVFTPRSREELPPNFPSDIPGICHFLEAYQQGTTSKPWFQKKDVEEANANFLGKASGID
T1 sequence (P16068 1-619): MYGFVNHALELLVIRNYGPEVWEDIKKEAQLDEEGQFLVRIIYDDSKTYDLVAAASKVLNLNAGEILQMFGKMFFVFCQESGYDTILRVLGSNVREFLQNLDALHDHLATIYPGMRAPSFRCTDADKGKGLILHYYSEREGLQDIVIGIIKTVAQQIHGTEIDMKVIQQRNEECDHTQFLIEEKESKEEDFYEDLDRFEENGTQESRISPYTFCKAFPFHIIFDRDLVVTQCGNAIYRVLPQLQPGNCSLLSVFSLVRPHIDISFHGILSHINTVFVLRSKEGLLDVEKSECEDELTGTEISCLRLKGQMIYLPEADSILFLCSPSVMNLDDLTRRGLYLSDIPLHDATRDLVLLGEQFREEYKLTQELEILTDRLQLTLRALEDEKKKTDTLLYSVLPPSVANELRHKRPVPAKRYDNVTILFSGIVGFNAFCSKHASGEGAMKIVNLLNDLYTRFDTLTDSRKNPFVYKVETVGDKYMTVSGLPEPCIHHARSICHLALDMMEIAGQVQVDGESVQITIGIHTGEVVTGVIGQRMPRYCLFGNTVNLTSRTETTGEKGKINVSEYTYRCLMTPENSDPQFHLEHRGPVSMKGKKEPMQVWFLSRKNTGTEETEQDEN
Experimental: The activity of sGC purified from bovine lung was determined as formation of [^32P]cGMP from [α-^32P]GTP. The purified enzyme (50 ng) was incubated at 37°C for 10 min in a final volume of 0.1 ml in the absence or presence of flavorings with the NO donor DEA/NO at concentrations indicated in the figure legends, followed by isolation of [^32P]cGMP and quantification of radioactivity (Cerenkov radiation) in a β counter.
To test for reversibility of inhibition, sGC (50 ng) was preincubated in the absence or presence of the respective compounds for 5 minutes at 37°C, followed by 50-fold dilution in the assay mixtures and incubation with DEA/NO at 37°C for 10 minutes.

endothelial cells [7] = assay: MTT to formazan conversion (viability); format: cell-based, porcine; conditions: 1 mM, 60 minutes
Experimental: The viability of endothelial cells was judged by incubation with 1 mM of the flavoring compounds, followed by determination of 3-(4,5-dimethyl-2-thiazolyl)-2,5-diphenyltetrazolium bromide (MTT) to formazan conversion using the Cayman MTT Cell Proliferation Assay Kit purchased through VWR International (Vienna, Austria).

[8] = Electrochemical determination of NO released from DEA/NO (NO scavenging); conditions: DEA/NO 1 μM
Experimental: Scavenging of NO by flavoring compounds was studied with a nitric oxide sensor (ISO-NOP, World Precision Instruments, Berlin, Germany), calibrated with acidified nitrite as described previously. Free NO radical was generated by incubation of DEA/NO (1 μM) in 1 ml of 100 mM phosphate buffer, pH 7.4, in the absence or presence of superoxide dismutase (2500 U/ml) at ambient temperature. At the peak concentration of NO, flavoring compounds (10 μl of DSMO stock solutions) were added, DMSO served as vehicle control.

[9] = tested on: Porcine aortic endothelial cells (endogenous NO/cGMP pathway); assay: A23187 (Ca2+ ionophore)-induced endothelial cGMP formation; format: cell-based; conditions: NNA 0.3 mM
Experimental: Porcine aortic endothelial cells were isolated as described and cultured at 37°C, 5% CO2 for up to 3 passages in Dulbecco´s modified Eagle´s medium, containing 10% heat-inactivated fetal calf serum (FCS), 100 U/ml penicillin, 0.1 mg/ml streptomycin, and 1.25 μg/ml amphotericin B. Prior to experiments, cells were subcultured into 24-well plates (determination of cGMP formation) or 6-well plates (determination of L-citrulline formation).
Accumulation of intracellular 3',5'-cyclic GMP (cGMP) was determined as previously described. Briefly, endothelial cells were washed and preincubated with the compounds to be tested for 15 minutes at 37°C in 50 mM Tris buffer, pH 7.4, containing 100 mM NaCl, 5 mM KCl, 1 mM MgCl2, 2.5 mM CaCl2, 1 mM 3-isobutyl-1-methylxanthine, and 1 μM indomethacin. Reactions were started by addition of the Ca^2+ ionophore A 23187 (final concentration 1 μM) or the NO donor DEA/NO (final concentration 1 μM) and terminated after 4 minutes by removal of the incubation medium and addition of 0.01 M HCl. Within 1 h, intracellular cGMP was completely released into the supernatant and measured by radioimmunoassay.

[10] = absence of L-NAME, read-out: EC50 of relaxation of pre-contracted vessels (Control)
[11] = presence of L-NAME 0.2 mM, read-out: EC50 of relaxation of pre-contracted vessels (L-NAME)

LDH release (% of maximum) (endothelial cells [4]) | EC50 (rat aortic rings [5]; [10]) | EC50 (rat aortic rings [5]; [11]) | Emax of DEA/NO-stimulated sGC activity in presence of flavoring [6] | Structure (SMILES) | Formazan formation (% of control) (endothelial cells [7]) | also measured
1.4±0.72 % of maximum | 1700 µM | 1800 µM | 25±0.6 µmol cGMP x min-1 x mg-1 | COc1cc(C=O)ccc1O [Vanillin, 4-Hydroxy-3-methoxybenzaldehyde] | 109±6.7 % of control | –
0.7±0.28 % of maximum | – | – | 28±0.7 µmol cGMP x min-1 x mg-1 | CC(=O)OCCC(C)C [Isoamylacetate, 3-Methylbutyl acetate] | 103±3.8 % of control | EC50 of relaxation of pre-contracted vessels (Control) (rat aortic rings [5]; absence of L-NAME): no effects below 10 mM
0.8±0.03 % of maximum | 1600 µM | 1400 µM | 28±0.4 µmol cGMP x min-1 x mg-1 | CC1CCC(C(C)C)C(O)C1 (stereo not drawn) [Menthol, 5-Methyl-2-(propan-2-yl)cyclohexan-1-ol] | 100±2.9 % of control | –
1.0±0.27 % of maximum | – | – | – | CC12CCC(CC1)C(C)(C)O2 [Eucalyptol, 1,3,3-Trimethyl-2-oxabicyclo[2.2.2]octane] | 99±2.0 % of control | EC50 of relaxation of pre-contracted vessels (Control) (rat aortic rings [5]; absence of L-NAME): no effects below 10 mM

More lines, now with the values behind:

Structure (SMILES) | LDH release (% of maximum) (endothelial cells [4]) | EC50 (rat aortic rings [5]; [10]) | EC50 (rat aortic rings [5]; [11]) | Emax of DEA/NO-stimulated sGC activity in presence of flavoring [6] | Formazan formation (% of control) (endothelial cells [7]) | also measured
CC(=O)OCC[N+](C)(C)C [acetylcholine] | – | – | – | – | – | EC50 (rat aortic rings [1]): 0.055 µM
O=C(O)/C=C/c1ccccc1 [cinnamic acid] | – | – | – | – | – | Biological half-life [2]: about 7 minutes
C=C[C@@]1(C)CC(=O)[C@]2(O)[C@@]3(C)[C@@H](O)CCC(C)(C)[C@@H]3[C@H](O)[C@H](OC(C)=O)[C@@]2(C)O1 [Forskolin, reference compound] | – | – | – | – | – | cAMP [3]: 9309±488 fmol x mg-1
Cc1cnc(C)cn1 [Dimethylpyrazine, 2,5-Dimethylpyrazine] | 0.9±0.12 % of maximum | 4200 µM | 5200 µM | 27±0.7 µmol cGMP x min-1 x mg-1 | 103±3.7 % of control | –
CC(=O)C(C)=O [Diacetyl, Butane-2,3-dione] | 0.6±0.03 % of maximum | – | – | – | 95±4.6 % of control | Effect on recorded NO signal (NO scavenging) ([8]; 1 mM): only moderate effects; Effect on recorded NO signal (NO scavenging) ([8]; 10 mM): pronounced decrease; EC50 of relaxation of pre-contracted vessels (Control) (rat aortic rings [5]; absence of L-NAME): no effects below 10 mM; IC50 ([6]; DEA/NO 0.05 μM, 95% CI): 290 µM
N=C(NCCC[C@H](N)C(=O)O)N[N+](=O)[O-] [NNA, N^G-nitro-L-arginine, reference compound] | – | – | – | – | – | Effect on A23187-induced cGMP accumulation [9]: completely inhibited
CC(=O)c1ccccn1 [Acetylpyridine, 1-(Pyridin-2-yl)ethan-1-one] | 0.7±0.12 % of maximum | 3700 µM | 5600 µM | 28±0.8 µmol cGMP x min-1 x mg-1 | 102±4.4 % of control | –
O=Cc1ccccc1 [Benzaldehyde, benzaldehyde] | – | 2200 µM | 2500 µM | – | – | –
